Source: publication PMC10650714, “Double Attack to Oxidative Stress in Neurodegenerative Disorders: MAO-B and Nrf2 as Elected Targets” (Molecules, 2023)
Values joined by “and” are separate entries in the source; they are usually repeats but may differ in a detail not shown here. Identical values can stand only once. “Also recorded” adds a separate entry of the source. Like-named read-outs stand apart in the source and are kept apart here.

Legend:
recombinant hMAO-B = target: T1, recombinant hMAO-B (Homo sapiens, UniProt P27338); assay: hMAO-B activity assay (kynuramine, fluorimetric); assay type: biochemical; details: for SI (selectivity index): calculated as hMAO-A Ki/hMAO-B Ki; for mechanism of hMAO-B inhibition: double reciprocal plots / global fit
T1 construct: purchased Fluka-Sigma-Aldrich s.r.l; (Italy); host or cells: Baculovirus infected BT1 cells
T1 sequence (P27338 1-520): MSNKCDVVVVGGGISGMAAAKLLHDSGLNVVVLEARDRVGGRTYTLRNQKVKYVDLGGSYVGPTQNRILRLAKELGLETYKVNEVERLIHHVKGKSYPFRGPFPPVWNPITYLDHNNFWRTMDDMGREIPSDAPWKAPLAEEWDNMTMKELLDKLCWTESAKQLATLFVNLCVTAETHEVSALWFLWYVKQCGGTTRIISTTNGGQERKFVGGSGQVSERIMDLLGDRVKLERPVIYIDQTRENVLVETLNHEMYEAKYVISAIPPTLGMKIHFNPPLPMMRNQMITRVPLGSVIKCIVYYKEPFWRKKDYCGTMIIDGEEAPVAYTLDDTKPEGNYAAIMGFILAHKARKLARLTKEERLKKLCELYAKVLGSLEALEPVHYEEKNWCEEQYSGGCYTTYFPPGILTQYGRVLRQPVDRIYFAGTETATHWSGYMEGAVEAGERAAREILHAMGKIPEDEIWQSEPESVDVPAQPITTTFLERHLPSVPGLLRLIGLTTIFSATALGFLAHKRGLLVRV
Procedure: Human recombinant hMAO-A and hMAO-B expressed in Baculovirus infected BT1 cells (5 mg/mL) and horseradish peroxidases were purchased from Fluka-Sigma-Aldrich s.r.l. (Italy). A Cary Eclipse fluorimeter (Varian Inc., Palo Alto, CA, USA) was used for fluorescence measurements. […] At first, the peroxidase-coupled continuous assay that detect the H2O2 generation rate was considered. It uses the Amplex Red reagent as the fluorogenic substrate for horseradish peroxidase.
By applying this method, hMAO activity assays were performed in K/Pi 0.1 M, EDTA 1 mM (total volume: 200 μL; pH 7.4, T = 37 °C), in the presence and in absence of various concentrations of the different compounds (0.2–20 μM and 2–50 μM in the case of hMAO–B and hMAO-A, respectively).
MAOs stock solutions were diluted with assay buffer in the presence or absence of the tested compound to obtain a final concentration of 0.005 mg/mL for MAO-A and 0.010 mg/mL for MAO-B; then, kynuramine (10–300 μM final concentration) was added to the assay solution. After 45–60 min of incubation at 37 °C, the reaction was stopped by the addition of 2 M NaOH (80 μL) and 480 μL of distilled water. Kynuramine deaminated by MAO spontaneously cyclizes to provide 4-hydroxyquinoline, the amount of which was determined by the fluorescence intensity of the peak of its emission spectra (λexc = 330 nm and λem 330–530 nm). Then, the rate of reaction was calculated using a specific calibration curve (in the presence of the same amount of the tested compound) built with the standard 4-hydroxyquinoline.
Under these experimental conditions, the Michaelis–Menten equation for rate of reaction, can be simplified as follows: V ≈ (Vmax/KM) [E]0[S]0 [49]. In the presence of an inhibitor, one or both the kinetic parameters, KM and Vmax, might be affected by its presence, depending on the inhibition mechanism. In particular, in the presence of a reversible inhibitor, both the kinetic parameters could be affected, and the apparent kinetic parameter would then become: KM I = KM,0 (1 + [I]/Ki)/(1 + [I]/(αKi)), and VmaxI = Vmax0/(1 + [I]/(αKi)), where α is the factor indicating how much the dissociation constant of the enzyme-substrate-I complex is different from that of the enzyme–I complex (also named Ki). Consequently, the ratio of the initial rate of reaction in the absence (Vo) and in the presence (VI) of the tested compound (Vo/VI) can be simplified to the ratio of (Vmax/KM)o/(Vmax/KM)I ≈ (1 + [I]/Ki).
To study the mechanism of inhibition, the steady-state kinetic parameters (Vmax and Km) of MAO-A and MAO-B were determined by performing experiments at different substrate concentrations and in the absence and presence of different concentrations of the tested compound. Vmax and Km were calculated by fitting the Michaelis–Menten equation to the experimental data (initial rate of reactions vs. substrate concentrations), with Sigma Plot software, version 9.0 (Jandel Scientific, San Rafael, CA, USA).

[1] = tested on: ROS production in HepG2 cells; assay: Intracellular ROS generation rate (DCF-DA); assay type: cell-based, human; details: 5 µM, 30 min; for ROS generation rate (oxidation rate of DCF): both in the presence and absence of antimycin A (10 µM); for effect on antimycin A-induced ROS: antimycin A 10 µM
Procedure: Thus, on the basis of the hMAO-B inhibitory potency and on the Nrf2 nuclear translocation results, the most promising compounds 2 and 3 were chosen for the evaluation of their antioxidant activity in the human hepatic HepG2 cells, a valuable cellular system to assess antioxidant properties of the compounds [43, 44]. CAPE and pioglitazone were also tested as reference compounds. HepG2 cells were pre-loaded with dichlorofluorescein diacetate (DCF-DA), a fluorescent probe to detect ROS generation. […] Immediately, antimycin A (10 µM), an inhibitor of the complex III of the mitochondrial electron transport chain, was also added as an ROS inducer. The oxidation rate of DCF, that is, the generation rate of ROS, was detected for 30 min, and for each sample, the corresponding control was also run.
HepG2 cells (human hepatocellular carcinoma) were purchased from the American Type Culture Collection (ATCC HB-8065). Cells were grown in MEM (M0894, Merck Life Sciences S.r.l., Milan, Italy) supplemented with 2.2 g/L NaHCO3 (S5761, Merck Life Sciences S.r.l., Milan, Italy), 100 U/mL penicillin, 100 μg/mL streptomycin and 0.25 μg/mL amphotericin B (A5955, Merck Life Sciences S.r.l., Milan, Italy) and 10% foetal calf serum (F7524, Merck Life Sciences S.r.l., Milan, Italy). Cells were cultured at 37 °C in a humidified atmosphere incubator containing 5% carbon dioxide in air.
The intracellular production of ROS was detected via a fluorometric method using 2′,7′-dichlorofluorescein diacetate (D6883, Merck Life Sciences S.r.l., Milan, Italy) as probe. HepG2 cells (6 × 10^3/well) were seeded into a 96-well culture plate in 200 µL of a complete growth medium and incubated for 48 h in standard conditions. The medium was then removed, and cells were washed with 5 mM of PBS–glucose. Then, cells were loaded with 10 μM of 2′,7′-dichlorofluorescein diacetate in 5 mM of PBS–glucose at 37 °C in the dark for 20 min, washed with 5 mM of PBS–glucose, treated with the test compounds at indicated concentrations in 5 mM of PBS–glucose and then analysed. Fluorescence intensity was recorded for 30 min at λemx = 485 nm and λem = 527 nm, using a Victor X3 Multilabel plate reader (Perkin Elmer). The rate of ROS generation was calculated relative to untreated cells (controls) after subtraction of autofluorescence value. Results were presented as the mean values of at least three independent experiments performed with six replicates.

mechanism of hMAO-B inhibition (recombinant hMAO-B) | Ki (recombinant hMAO-B; global fit analysis, mixed inhibition model, read-out: KEI (inhibition constant for the free enzyme)) [nM] | Ki (recombinant hMAO-B; kynuramine [S] = 10 µM, pH 7.4, 37 °C, mean ± S.D., read-out: hMAO-B Ki) | Ki (recombinant hMAO-B; read-out: hMAO-B Ki) [nM] | Structure (SMILES) | SI (selectivity index) (recombinant hMAO-B) | Ki (recombinant hMAO-B; hMAO-B Ki, kynuramine [S] = 10 µM, pH 7.4, 37 °C, mean ± S.D.) [nM] | ROS generation rate (oxidation rate of DCF) [1] | effect on antimycin A-induced ROS [1]
 |  |  |  | O=C(/C=C/c1ccc(O)c(O)c1)OCCc1ccccc1 [CAPE, caffeic acid phenethyl ester, reference compound] | 6.7 | 1800 ± 200 | strongly reducing the oxidation rate of DCF | almost abolish the effect of antimycin A stimulus
mixed inhibition | 450 ± 800 | 500 nM and 530 nM | 530 | O=C(/C=C/c1ccc(O)c(O)c1)Oc1ccc(CC2SC(=O)NC2=O)cc1 (stereo not shown) [Compound 2, 4-((2,4-Dioxothiazolidin-5-yl)methyl)phenyl (E)-3-(3,4-Dihydroxyphenyl)acrylate] | 66 |  | highest antioxidant potency; also recorded: significantly reduced cellular ROS content | almost abolish the effect of antimycin A stimulus
selective and competitive inhibitor |  |  |  | CCc1ccc(CCOc2ccc(CC3SC(=O)NC3=O)cc2)nc1 (stereo not shown) [Pioglitazone, reference compound] |  |  | did not show any effect on the ROS generation rate | 
